{"source": "paper PMC8088467", "about": "(Cell Proliferation, 2021)", "test_system": "Candida albicans SC5314", "assay": "Morphology assay (light microscope and SEM)", "type": "cell-based", "conditions": "1 x 10^6 CFU/mL, RP medium, 8 hours 37°C; 200 nM TDNs, 20 µM His‐5 or 200 nM TDN/His‐5 (1:100); bright field images", "procedure": "Candida albicans SC5314 (wild type) obtained from our laboratory were commercially from the American Type Culture Collection. ^34 Candida albicans strains were propagated on liquid or solid YPD medium at 30°C. The yeast cells used in all experiments were in the exponential growth phase (OD600 = 0.6). For inducing hyphae, C. albicans cells were grown in RPMI 1640 medium containing 2.5% foetal calf serum, 2 mM L‐glutamine, 20 mM HEPES and 16 mM sodium hydrogen carbonate (pH 7.0) (RP medium) at 37°C.\nAfter fixation, the samples were dehydrated with a gradient series of ethanol. Specimens were observed under a Leica DM1000 microscope (Leica Microsystems) and a scanning electron microscope (Inspect F, FEI, America). ^40 , ^44"}
{"substance": "Histatin 5", "values": [{"measurement": "Morphology of C. albicans (hyphae formation)", "result": "more yeast cells and fewer hyphae"}]}
